From ChEMBL document CHEMBL3046041, “3D QSAR kNN-MFA studies on thiouracil derivatives as hepatitis C virus inhibitors” (Med Chem Res, 2011) come the findings set out here.

SMILES strings stand for the structures.

RNA-directed RNA polymerase, sequence (O39930 whole entry): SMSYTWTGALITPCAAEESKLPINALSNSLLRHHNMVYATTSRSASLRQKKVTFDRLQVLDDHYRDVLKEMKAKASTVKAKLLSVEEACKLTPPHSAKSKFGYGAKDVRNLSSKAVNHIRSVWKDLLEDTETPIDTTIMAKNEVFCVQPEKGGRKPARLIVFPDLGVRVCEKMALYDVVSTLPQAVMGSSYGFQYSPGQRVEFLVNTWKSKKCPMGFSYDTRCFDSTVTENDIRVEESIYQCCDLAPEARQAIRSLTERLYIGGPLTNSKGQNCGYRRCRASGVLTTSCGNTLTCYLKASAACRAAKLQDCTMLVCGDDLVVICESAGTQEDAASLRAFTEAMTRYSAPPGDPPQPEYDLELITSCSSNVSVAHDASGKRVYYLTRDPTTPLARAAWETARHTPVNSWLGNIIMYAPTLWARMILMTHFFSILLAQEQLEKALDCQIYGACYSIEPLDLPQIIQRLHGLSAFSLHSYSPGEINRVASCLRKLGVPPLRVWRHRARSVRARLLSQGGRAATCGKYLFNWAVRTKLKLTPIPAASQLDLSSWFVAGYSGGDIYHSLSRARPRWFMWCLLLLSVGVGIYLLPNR

The first assay addresses RNA-directed RNA polymerase (Hepacivirus hominis, UniProt O39930). In words: Inhibition of Hepatitis C virus NS5B RNA-dependent RNA polymerase. The conditions noted are these: read-out: IC50.
As to `N#Cc1c(-c2ccc(Br)cc2)nc(SCc2ccccc2Br)[nH]c1=O`, the IC50 stood at 10 µM. Take `COc1cc(CSc2nc(-c3cccc(C)c3)c(C#N)c(=O)[nH]2)cc(OC)c1`: the IC50 came out at 30 µM. On to `COc1cc(CSc2nc(-c3ccccc3C)c(C#N)c(=O)[nH]2)cc(OC)c1`, for which the IC50 turned out to be 25 µM. `Cc1ccccc1-c1nc(SCc2ccccc2Br)[nH]c(=O)c1C#N`: the IC50 was 32 µM. On to `N#Cc1c(-c2ccccc2C(F)(F)F)nc(SCc2ccccc2Br)[nH]c1=O`, for which the IC50 stood at 21 µM.

Regarding `Cc1cccc(CSc2nc(-c3ccc(C(C)C)cc3)c(C#N)c(=O)[nH]2)c1`, the IC50 was determined as 12 µM. For the compound `CC(C)c1ccc(-c2nc(SCc3cccc([N+](=O)[O-])c3)[nH]c(=O)c2C#N)cc1`, the IC50 was 10 µM. As for `CCCCCSc1nc(-c2cccc(C(F)(F)F)c2)c(C#N)c(=O)[nH]1`, the IC50 turned out to be 12 µM. Still for that read-out and setting: in the case of `COc1cc(CSc2nc(-c3ccc(F)cc3F)c(C#N)c(=O)[nH]2)cc(OC)c1` it was 19 µM.

As for `Cc1cccc(CSc2nc(-c3ccc(F)cc3F)c(C#N)c(=O)[nH]2)c1`, the IC50 is 57 µM. The same measure, in the same setting: the same measure for `N#Cc1c(-c2ccc(F)cc2F)nc(SCc2ccccc2Br)[nH]c1=O`: 13 µM. Still for that read-out and setting: the same measure for `N#Cc1c(-c2ccc(F)cc2F)nc(SCc2cccc([N+](=O)[O-])c2)[nH]c1=O`: 32 µM; for `COc1cc(CSc2nc(-c3ccc(Cl)cc3Cl)c(C#N)c(=O)[nH]2)cc(OC)c1`: 34 µM; for `N#Cc1c(-c2ccc(Cl)cc2Cl)nc(SCc2ccc(OC(F)(F)F)cc2)[nH]c1=O`: 11 µM.

Turning to `COc1cc(CSc2nc(-c3ccc(Br)cc3)c(C#N)c(=O)[nH]2)cc(OC)c1`, the IC50 worked out at 13 µM. On the same count and under the same terms, in the case of `N#Cc1c(-c2ccc(Br)cc2)nc(SCc2cccc([N+](=O)[O-])c2)[nH]c1=O` it was 14 µM. On to `N#Cc1c(-c2ccc(Br)cc2)nc(SCc2ccccc2C(F)(F)F)[nH]c1=O`, for which the IC50 amounted to 7.1 µM.

On to `N#Cc1c(-c2ccc(Br)cc2)nc(SCc2ccc(OC(F)(F)F)cc2)[nH]c1=O`, for which the IC50 stood at 8.7 µM. With `Cc1cccc(CSc2nc(-c3cccc(C)c3)c(C#N)c(=O)[nH]2)c1`, the IC50 came to 22 µM. Same read-out and setting: the same measure for `Cc1cccc(-c2nc(SCc3cccc([N+](=O)[O-])c3)[nH]c(=O)c2C#N)c1`: 20 µM; for `Cc1cccc(-c2nc(SCc3ccc(OC(F)(F)F)cc3)[nH]c(=O)c2C#N)c1`: 8.6 µM; for `COc1cc(CSc2nc(-c3cccc(C(F)(F)F)c3)c(C#N)c(=O)[nH]2)cc(OC)c1`: 11 µM. Turning to `Cc1cccc(CSc2nc(-c3cccc(C(F)(F)F)c3)c(C#N)c(=O)[nH]2)c1`, the IC50 is 14 µM. Same read-out and setting: the same measure for `N#Cc1c(-c2cccc(C(F)(F)F)c2)nc(SCc2cccc([N+](=O)[O-])c2)[nH]c1=O`: 13 µM; for `Cc1cccc(CSc2nc(-c3ccccc3C)c(C#N)c(=O)[nH]2)c1`: 14 µM; for `Cc1ccccc1-c1nc(SCc2cccc([N+](=O)[O-])c2)[nH]c(=O)c1C#N`: 37 µM.

For the compound `COc1cc(CSc2nc(-c3cc(F)cc(F)c3)c(C#N)c(=O)[nH]2)cc(OC)c1`, the IC50 was determined as 15 µM.

Consider `Cc1cccc(CSc2nc(-c3cc(F)cc(F)c3)c(C#N)c(=O)[nH]2)c1`, for which the IC50 was 27 µM. Turning to `COc1cc(CSc2nc(-c3ccccc3C(F)(F)F)c(C#N)c(=O)[nH]2)cc(OC)c1`, the IC50 was 12 µM. Regarding `Cc1cccc(CSc2nc(-c3ccccc3C(F)(F)F)c(C#N)c(=O)[nH]2)c1`, the IC50 was found to be 14 µM. The same measure, in the same setting: the same measure for `N#Cc1c(-c2ccccc2C(F)(F)F)nc(SCc2ccc(OC(F)(F)F)cc2)[nH]c1=O`: 9.2 µM. As to `COc1cc(CSc2nc(-c3cc(Cl)cc(Cl)c3)c(C#N)c(=O)[nH]2)cc(OC)c1`, the IC50 turned out to be 34 µM.

For `Cc1cccc(CSc2nc(-c3cc(Cl)cc(Cl)c3)c(C#N)c(=O)[nH]2)c1`, the IC50 came to 29 µM. Still for that read-out and setting: the same measure for `COc1cc(CSc2nc(-c3ccc(C(C)C)cc3)c(C#N)c(=O)[nH]2)cc(OC)c1`: 25 µM.

For the compound `CC(C)c1ccc(-c2nc(SCc3ccccc3Br)[nH]c(=O)c2C#N)cc1`, the IC50 worked out at 3.8 µM. With `CC(C)c1ccc(-c2nc(SCc3ccc(OC(F)(F)F)cc3)[nH]c(=O)c2C#N)cc1`, the IC50 is 9.9 µM.

With `CCCCCSc1nc(-c2ccc(F)cc2F)c(C#N)c(=O)[nH]1`, the IC50 amounted to 12 µM. Still for that read-out and setting: the same measure for `CCCCCSc1nc(-c2ccc(Cl)cc2Cl)c(C#N)c(=O)[nH]1`: 17 µM; for `N#Cc1c(-c2ccc(Cl)cc2Cl)nc(SCCCc2ccccc2)[nH]c1=O`: 12 µM. Still for that read-out and setting: the same measure for `CCCCCSc1nc(-c2ccc(Br)cc2)c(C#N)c(=O)[nH]1`: 11 µM. The same measure, in the same setting: in the case of `N#Cc1c(-c2ccc(Br)cc2)nc(SCCC(=O)Oc2ccccc2)[nH]c1=O` it was 30 µM. As to `N#Cc1c(-c2ccc(Br)cc2)nc(SCC2CCCCO2)[nH]c1=O` (stereo unspecified), the IC50 turned out to be 50 µM. With `CCCCCSc1nc(-c2cccc(C)c2)c(C#N)c(=O)[nH]1`, the IC50 was found to be 18 µM. Same read-out and setting: in the case of `N#Cc1c(-c2cccc(C(F)(F)F)c2)nc(SCCC(=O)Oc2ccccc2)[nH]c1=O` it was 13 µM; in that of `CCCCCSc1nc(-c2ccccc2C)c(C#N)c(=O)[nH]1`, 18 µM. The same measure, in the same setting: the same measure for `CCCCCSc1nc(-c2ccccc2C(F)(F)F)c(C#N)c(=O)[nH]1`: 20 µM; for `CCCCCSc1nc(-c2ccc(C(C)C)cc2)c(C#N)c(=O)[nH]1`: 12 µM; for `CC(C)c1ccc(-c2nc(SCC3CCCCO3)[nH]c(=O)c2C#N)cc1` (stereo unspecified): 17 µM.

`Cc1cccc(CSc2nc(-c3ccc(Cl)cc3Cl)c(C#N)c(=O)[nH]2)c1`: the IC50 was determined as 33 µM.

As to `Cc1cccc(CSc2nc(-c3ccc(Br)cc3)c(C#N)c(=O)[nH]2)c1`, the IC50 was determined as 11 µM.

The assay is the same for the next values; noted with them: read-out: pIC50 (converted).
On to `N#Cc1c(-c2ccc(Br)cc2)nc(SCc2ccccc2C(F)(F)F)[nH]c1=O`, for which the IC50 is 7.24 µM.
